Patent US12582720B2, “Compound for preventing or treating lipid metabolism-related diseases” (Fudan University, priority 2020, dated 2026)

What was measured:
db/db mice = test: Effect of the compound on db/db mouse; format: in vivo
Source text: Experimental animals: nineteen-week-old db/db male mice (C57BL/6J-Lepr^db/Lepr^db) were obtained from Shanghai Model Organisms Co., Ltd., and acclimatized for at least 1 week before experiments. The mice had ad libitum access to standard chow and water.
Normal control: The C57BL/6 male mice fed on standard irradiated chow diet (Shuyishuer Inc. cat. no. D12450J) from Changzhou Shuyishuer Biotechnology Co., Ltd. (Shuyishuer Inc.) were used as the normal control.
(§1) Mice were randomly divided into 7 groups, wherein 8 mice in each group, and the mice in each group were subjected to intraperitoneal injection to administer: (1) only vehicle (no DMSO) group: 0% DMSO+39% PEG300 (Selleck, cat. no. S6704)+5% Tween-80 (Selleck, cat. no. S6702)+56% distilled water, (2) DMSO group: 1% DMSO+39% PEG300+5% Tween-80+55% H2O (DMSO vehicle), (3) C3 group: Compound 3A was in DMSO vehicle, (4) C4 group: Compound 4A in DMSO vehicle, (5) SIII group: Sudan III DMSO vehicle, (6) GW5074 group: Compound A1 in DMSO vehicle, (7) DP group: Compound A5 in DMSO vehicle. For groups (3)-(7), the compound (30 mg/kg, administration volume 150 μL) was administered through intraperitoneally injection for consecutive 2 weeks, and once a day. The food and water intake were measured with an analytical electronic balance.
Bodyweight was weighed every day.
If time permitted, tail vein blood (30-50 μL) was collected every 1-3 days.
(§2) 24 hours after the time point of the last injection, end point maxillary surface blood sampling was performed on each mouse. All mice were Euthanized by cervical dislocation, and then tissue sample (e.g., liver samples) were obtained and stored in Eppendorf tubes at −80° C. for assay.
(§3) 12 days after initiation of administration, each mouse was scanned by a minispec nuclear magnetic resonance (NMR) instrument (Bruker LF50 II “Minispec” body composition analyzer, Bruker Optics) that was designed for experimental animals, and based on the measurement of solid and liquid parts of the samples, the body fat and lean body weight were determined by this device.
(§4) Serum: Tail vein blood samples (30-50 μL) were left to coagulate in […] blood collection tubes (Jiangsu Kangjian Medical Products Co., Ltd., model KJ002) at room temperature without interference, and then centrifuged at 2,000×g for 10 minutes at 4° C. to remove the clot. Supernatant was collected to obtain the serum.
(§5) Liver: Liver samples were obtained as described in (2). 100 mg of liver tissue was homogenized in 0.9 mL of absolute alcohol under ice-cold conditions, and then centrifuged (2,500 r.p.m/min, 10 min). Supernatant was collected, and then stored at −80° C.
(§6) The kits were used according to the instruction from manufacturer (TAG: TG kit, cat. no. A110-1-1; TC: T-CHO kit, cat. no. A111-1. FFA: NEFA kit, cat. No. A042-2-1; they were all from Nanjing Jiancheng Bioengineering Institute). TAG, TC and FFA levels in serum and liver samples were determined.
According to the lipidomic method as described above, the contents of liver total lipid, glycerolipid, sterol lipid, neutral sphingolipid and polar lipid were analyzed. The log 2-fold change (log2 FC) and statistical significance (p-value) relative to the DMSO group were calculated.

[1] = test system: lipid droplets in LC3B knockout HEK293T cells; test: Lipid droplets in LC3B knockout HEK293T cells; format: cell-based, human; settings: 5 μM
Protocol: The effect of conjugated compounds (Compound 1A, Compound 2A, Compound 3A or Compound 4A at a concentration of 5 μM) on lipid droplets in LC3B knockout HEK293T cells was tested by a method similar to Example 2.

NASH mice = test: Effect of the compound on NASH mouse model (CDAHFD); format: in vivo
Protocol: 15-micrometer cryosections were obtained from the liver (see “BODIPY staining of tissues” and processed for visualization of fibrosis by picro-sirius red staining as described in the literature (Sookoian S et al., Fatty Liver Disease Progresses into Severe NASH when Physiological Mechanisms of Tissue Homeostasis Collapse. Ann Hepatol 2018; 17:182-186.). The liver cryosections were washed with 1×PBS and then incubated at room temperature for 1 hour with the solution containing 0.1% vol/vol Direct Red 80 Direct Red 80 (for staining collagen in red as an indicator for liver fibrosis) and 0.04% Fast Green (Sigma-Aldrich, cat. no. F7258, for general protein staining as a background) in saturated aqueous solution of picric acid (Sigma., cat. no. P6744-1GA). The samples were imaged by using an Olympus inverted fluorescence microscope IX73, and the histological fibrosis images were analyzed by the imageJ software.
Experimental animals: ten-week-old C57BL/6 male mice were obtained from Hangzhou Ziyuan Inc. The mice had ad libitum access to water and a choline-deficient, L-amino acid-defined, high-fat diet (CDAHFD) containing 60% kcal fat obtained from Changzhou Shuyishuer Inc. for twelve weeks (including the two-week compound-injection period) to generate the non-alcoholic steatohepatitis (NASH) models.
as §1, §2, §3, §4, §5, §6

[2] = test system: autophagosome-lipid droplet colocalization in MEF cells; test: Colocalization of autophagosome and lipid droplets in mCherry-LC3B transfected MEF cells; format: cell-based, mouse; settings: 5 μM, 3 h, compared to DMSO control
Protocol: (1) In MEF cells, mCherry-LC3B was expressed by cDNA plasmid transfection.
(2) OA was added to the culture medium 30 hours after transfection to induce lipid droplets.
(3) Compounds were added to treat cells 6 hours after induction.
(4) 3 hours after compounds addition, cells were fixed and BODIPY stained.
(5) The coverslips laid in the multi-well plates were removed, and imaged with the Zeiss 880 confocal microscope after mounted to observe the aggregation of LC3 puncta around the lipid droplets.
In MEF cells, mCherry-LC3B was expressed by cDNA plasmid transfection. At 30th hour of overexpression, OA was added into cells for lipid droplet induction. 6 hours later, the compound was added for 3 hours' treatment, and then cells were subjected to immunostaining. […] Lipid droplets (green) were stained with BODIPY stain, and nucleus were indicated with DAPI stain. […] In FIG. 24, the colocalized autophagosome-lipid droplet was marked with circles.

[3] = test system: lipid droplets in 3T3-L1 fat precursor cell differentiated fat cells; test: Lipid droplets in 3T3-L1 fat precursor cell differentiated fat cells; format: cell-based, mouse; settings: 3T3-L1 differentiated fat cells, 24 h
LC3B = LC3B (Homo sapiens, UniProt Q9GZQ8); test: MST detection of affinity activity with LC3B; format: binding; design: His8 (with TEV site) (N); made in house; host or cells: Escherichia coli BL21(DE3)pLysS; settings: MST; read-out: Kd (μM), equilibrium dissociation constant between the conjugated compound and LC3B
Protocol: The recombinant GST-LC3B proteins were prepared and purified, dialyzed into 1×PBS, and then labelled with the red fluorophore with the protein labeling kit RED-NHS (Nanotemper, cat. no. L001).
The MST experiments were performed using the Monolith NT.115 instrument (NanoTemper Technologies). The reaction buffer contains 20 mM HEPES, pH 7.4, 150 mM NaCl, and the protein concentration was 500 nM. The MST data were collected under 40% infrared laser power and 20% light-emitting diode power. The data were analyzed by Nanotemper software.

## O=c1cc(-c2ccccc2)c2c(OCCCCCCCCCCOc3ccc4ccccc4c3/N=N/c3ccc(/N=N/c4ccccc4)cc3)cc(O)cc2o1 [Compound 4A, 7-hydroxy-4-phenyl-5-((10-((1-((E)-(4-((E)-phenyldiazenyl)phenyl)diazenyl)naphthalen-2-yl)oxy)decyl)oxy)-2H-chromen-2-one]
db/db mice
  body weight-normalized food intake: marginally significant increase
db/db mice; 30 mg/kg ip
  FFA levels in serum and liver: significantly reduced
  body weight-normalized food and water intake: no significant reduction
db/db mice; 30 mg/kg ip once a day, within 2 weeks
  weight loss (total body weight): about 15%
db/db mice; 30 mg/kg ip, 12 days, vs DMSO group
  ratio of body fat/lean body weight: significantly reduced
db/db mice; 30 mg/kg ip, 14 days
  amount and size of liver lipid droplets (BODIPY493/503): significantly reduced
db/db mice; 30 mg/kg ip, 14 days, vs DMSO group
  liver weight: significantly reduced
db/db mice; 30 mg/kg ip, vs DMSO group
  TAG levels in liver and serum: significantly reduced
  TC levels in liver and serum: significantly reduced
db/db mice; absolute quantitative lipidomics, vs DMSO group
  reduction of liver total lipid concentration (liver lipid level): 41.5±13.9%
db/db mice; lipidomics
  TAG in liver: significantly reduced
  most glycerolipids, sterol lipids and neutral sphingolipids in liver: reduced
  other major neutral lipids, cholesteryl ester (ChE) and diglyceride (DG) in liver: slightly reduced
  polar lipids, e.g., glycerophospholipids in liver: did not reduce
db/db mice; liver lipidomics
  PE and PI: unaffected
  TAG and ChE with different chain carbon numbers or saturated bond numbers: all reduced
[1]
  reduction of lipid droplets induced by conjugated compounds after knockout of LC3B gene: largely blocked
NASH mice; 30 mg/kg ip
  liver weight: significantly reduced
  ratio of body fat/lean body weight: significantly reduced
  serum and liver TAG levels: reduced
  serum and liver TC levels: reduced
NASH mice; 30 mg/kg ip once a day, 2 weeks
  body weight: significantly reduced
NASH mice; 30 mg/kg ip, 14 days
  liver lipid droplets: significantly reduced
NASH mice; 30 mg/kg ip, 14 days, compared with control compound
  degree of interstitial fibrosis in liver tissue (picro-sirius staining): significantly reduced
[2]
  ratio of colocalization of red and green aggregation point (autophagosome-lipid droplet): significantly increased
[3]; 5 μM + NH4Cl 5 mM
  effect of the compound on lipid droplets under the treatment of NH4Cl: blocked
[3]; 5 μM
  amount of lipid droplets: could reduce
  size of lipid droplets: could change
LC3B
  Kd: 0.39 µM
